In assay [1] the test system is SARS-CoV-2. The experiment in a line: Cell-based antiviral drug testing in Vero-E6 cells. Particulars: for antiviral activity (in words): top 9 screened compounds, Vero-E6, percent inhibition, SRB assay.
Assay [2] relates to SARS-CoV-2. Type of assay: cell-based.

Structures are written as SMILES. “Also recorded” adds a separate entry of the source. Read-outs that look alike come from different tables or passages of the source. A value given as a limit tells only on which side of the number the result lay.

For the compound `C/C=C(/C)C(=O)OC(C)(C)[C@@H]1Cc2c(ccc3ccc(=O)oc23)O1` [Columbianadin], the “antiviral activity (in words)” value with SARS-CoV-2 [1] was “substantial antiviral activity”. The “inhibition of viral particle production (in words)” value (“inhibition” below) with SARS-CoV-2 [2] is recorded as “inhibit production of SARS-CoV-2”.
In the case of `Cc1oc(-c2ccccc2)nc1CCC(=O)c1ccc(CC2SC(=O)NC2=O)cc1` (stereo not shown) [Darglitazone Sodium], in the assay on SARS-CoV-2 [1], the EC50 is under 10 µM and the “antiviral activity (in words)” value is listed as “substantial antiviral activity”. Besides, in the assay on SARS-CoV-2 [2], the “inhibition” value is recorded as “greater anti-SARS-CoV-2 activity” and the “reduction of infectious virus production” value is on record as “over 3 orders of magnitude”. Moreover, the “inhibition” value in the assay with SARS-CoV-2 [2] (listed as darglitazone sodium) is “inhibit production of SARS-CoV-2”.
`CNC(=O)c1ccc(-c2cnc3ncc(Cc4ccc5ncccc5c4)n3n2)cc1F` [INCB28060]: the “antiviral activity (in words)” value in the assay on SARS-CoV-2 [1] is “best antiviral activity; also recorded: substantial antiviral activity”. Also, in the assay with SARS-CoV-2 [2], the “inhibition” value is recorded as “inhibit production of SARS-CoV-2; also recorded: greater anti-SARS-CoV-2 activity” and the “reduction of infectious virus production” value is reported as “over 3 orders of magnitude”.

The values are drawn from article PMC9539459 (Virology, 2022).
